Results taken from US9545407B2, “Formulations of a bruton's tyrosine kinase inhibitor” (Pharmacyclics LLC, priority 2014, dated 2017).
pEC50: −log10 of the molar value. Read-outs that look alike come from different tables or passages of the source.

Test system: OCI-Ly10
Assay: growth inhibition of OCI-Ly10 (ABC subtype DLBCL cells)
Assay type: cell-based
Details: Homo sapiens
Source text: See U.S. Pat. No. 7,711,492 and Staudt et al., Nature, Vol. 463, Jan. 7, 2010, pp. 88-92, the contents of which are incorporated by reference in their entirety.

pEC50 (continuous exposure, read-out: EC50 continuous exposure): 8.00
pEC50 (read-out: EC50 1 hour pulse, 1 hour pulse): 7.30
Structure (SMILES): C=CC(=O)N1CCC[C@@H](n2nc(-c3ccc(Oc4ccccc4)cc3)c3c(N)ncnc32)C1 [Compound 1, 1-((R)-3-(4-amino-3-(4-phenoxyphenyl)-1H-pyrazolo[3,4-d]pyrimidin-1-yl)piperidin-1-yl)prop-2-en-1-one]
